Test results as given in article PMC10836395, “Investigation of how gate residues in the main channel affect the catalytic activity of Scytalidium thermophilum catalase” (Acta Crystallographica. Section D, Structural Biology, 2024).
Marks after values point to notes of the source that are not given here.

Tests used:
[1] = target: T1, CATPO T188I variant (Scytalidium thermophilum (Humicola insolens), UniProt M4GGR5, T207I); assay: biochemical
[2] = target: T2, CATPO E484A variant (Scytalidium thermophilum (Humicola insolens), UniProt M4GGR5, E503A); assay: biochemical
T2 sequence (M4GGR5 entry or part of it E503A): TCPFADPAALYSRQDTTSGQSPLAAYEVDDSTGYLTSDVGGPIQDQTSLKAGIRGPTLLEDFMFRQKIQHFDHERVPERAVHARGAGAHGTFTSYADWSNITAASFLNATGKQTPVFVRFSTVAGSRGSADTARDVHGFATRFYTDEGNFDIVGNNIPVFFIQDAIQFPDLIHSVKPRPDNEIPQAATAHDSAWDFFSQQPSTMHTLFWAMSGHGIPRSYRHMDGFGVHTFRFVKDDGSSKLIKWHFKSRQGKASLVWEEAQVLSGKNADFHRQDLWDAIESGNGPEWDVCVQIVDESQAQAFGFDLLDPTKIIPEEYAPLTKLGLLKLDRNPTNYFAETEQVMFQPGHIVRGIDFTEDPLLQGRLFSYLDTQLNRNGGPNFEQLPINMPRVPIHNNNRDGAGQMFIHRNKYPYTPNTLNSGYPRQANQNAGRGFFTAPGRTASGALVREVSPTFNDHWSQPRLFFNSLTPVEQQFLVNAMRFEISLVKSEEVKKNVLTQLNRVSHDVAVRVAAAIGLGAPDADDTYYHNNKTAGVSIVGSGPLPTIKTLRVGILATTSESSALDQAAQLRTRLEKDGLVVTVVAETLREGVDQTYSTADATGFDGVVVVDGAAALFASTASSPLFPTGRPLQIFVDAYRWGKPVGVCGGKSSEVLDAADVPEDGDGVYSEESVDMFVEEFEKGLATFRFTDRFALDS

[3] = target: T3, CATPO T188A variant (Scytalidium thermophilum (Humicola insolens), UniProt M4GGR5, T207A); assay: biochemical
T3 sequence (M4GGR5 entry or part of it T207A): as the sequence (M4GGR5 entry or part of it E503A) above

[4] = target: T4, CATPO T188D variant (Scytalidium thermophilum (Humicola insolens), UniProt M4GGR5, T207D); assay: biochemical
T4 sequence (M4GGR5 entry or part of it T207D): as the sequence (M4GGR5 entry or part of it E503A) above

[5] = target: T5, CATPO E484I variant (Scytalidium thermophilum (Humicola insolens), UniProt M4GGR5, E503I); type: biochemical
T5 sequence (M4GGR5 entry or part of it E503I): as the sequence (M4GGR5 entry or part of it E503A) above

[6] = target: T6, CATPO (Scytalidium thermophilum (Humicola insolens), UniProt M4GGR5); assay: Substrate-specificity analysis of the phenol oxidase activity; type: biochemical
T6 sequence (M4GGR5 entry or part of it): as the sequence (M4GGR5 entry or part of it E503A) above

[7] = target: T2, CATPO E484A variant; assay: as above; type: biochemical
[8] = target: T7, CATPO E484D variant (Scytalidium thermophilum (Humicola insolens), UniProt M4GGR5, E503D); type: biochemical
T7 sequence (M4GGR5 entry or part of it E503D): as the sequence (M4GGR5 entry or part of it E503A) above

[9] = target: T6, CATPO; assay: Inhibition of catechol oxidation; type: biochemical; settings: catechol oxidation by CATPO; catechol 1 to 100 mM; read-out: K i
[10] = target: T7, CATPO E484D variant; assay: biochemical
[11] = target: T1, CATPO T188I variant; type: biochemical
[12] = target: T4, CATPO T188D variant; type: biochemical
[13] = target: T8, E484A (Mycothermus thermophilus, UniProt M4GGR5, E503A); assay: Spectrophotometric phenol oxidase assay without H2O2 at pH 7.0 and 60 °C, initial rates fitted to the Michaelis-Menten equation.; type: biochemical; settings: read-out: Phenol oxidase K m; n = 3
T8 construct: recombinant, pET-28-TEV-CATPO; contains heme b; Rz 0.8
T8 sequence (M4GGR5 20-717 E503A): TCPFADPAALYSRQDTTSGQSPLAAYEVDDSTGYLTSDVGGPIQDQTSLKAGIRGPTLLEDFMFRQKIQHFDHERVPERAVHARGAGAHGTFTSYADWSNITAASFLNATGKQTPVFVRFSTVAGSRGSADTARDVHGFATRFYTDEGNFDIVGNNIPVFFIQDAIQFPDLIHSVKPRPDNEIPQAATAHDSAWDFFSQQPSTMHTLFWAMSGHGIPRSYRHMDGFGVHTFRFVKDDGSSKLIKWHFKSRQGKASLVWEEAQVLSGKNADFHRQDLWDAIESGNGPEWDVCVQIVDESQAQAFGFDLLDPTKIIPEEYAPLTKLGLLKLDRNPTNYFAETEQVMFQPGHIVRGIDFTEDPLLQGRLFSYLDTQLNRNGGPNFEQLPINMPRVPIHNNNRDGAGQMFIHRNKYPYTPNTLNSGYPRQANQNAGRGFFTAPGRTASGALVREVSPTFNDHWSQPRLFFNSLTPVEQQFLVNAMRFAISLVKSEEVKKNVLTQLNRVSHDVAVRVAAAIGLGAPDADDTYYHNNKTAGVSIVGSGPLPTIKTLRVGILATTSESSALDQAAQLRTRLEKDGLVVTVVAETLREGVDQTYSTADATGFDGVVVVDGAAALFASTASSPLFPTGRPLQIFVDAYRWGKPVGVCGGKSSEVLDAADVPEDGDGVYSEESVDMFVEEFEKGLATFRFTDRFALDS
Experimental: All inhibition assays were performed in triplicate.

[14] = target: T5, CATPO E484I variant; assay: biochemical
[15] = target: T3, CATPO T188A variant; type: biochemical
[16] = target: T9, CATPO T188F variant (Scytalidium thermophilum (Humicola insolens), UniProt M4GGR5, T207F); assay: biochemical
T9 sequence (M4GGR5 entry or part of it T207F): as the sequence (M4GGR5 entry or part of it E503A) above

[17] = target: T9, CATPO T188F variant; type: biochemical

T1 sequence (M4GGR5 entry or part of it T207I): as the sequence (M4GGR5 entry or part of it E503A) above

Oc1cccc(O)c1O [Pyrogallol, pyrogallol]
Ki [1]: 62 ± 2.5 mM | Ki [2]: 71 ± 4 mM | Ki [3]: 4.1 ± 0.8 mM | Ki [4]: 55 ± 5.5 mM | V max [5]: 20300 ± 330 mM/min | k cat/K m [5]: 3060 ± 30 s^−1 M^−1 (×10^2) | K m ([5]; pH 7.0 (ABTS pH 5.0), 60°C): 40 ± 1.1 mM | V max [6]: 18450 ± 451 mM/min | k cat/K m [6]: 960 ± 65 s^−1 M^−1 (×10^2) | V max [7]: 50000 ± 156 mM/min | k cat/K m [7]: 6000 ± 50 s^−1 M^−1 (×10^2) | K m ([7]; pH 7.0 (ABTS pH 5.0), 60°C): 36 ± 0.7 mM | V max [8]: 16800 ± 300 mM/min | k cat/K m [8]: 600 ± 50 s^−1 M^−1 (×10^2) | K m ([8]; pH 7.0 (ABTS pH 5.0), 60°C): 40 ± 0.5 mM | Ki [9]: 4.2 ± 0.8 mM | Ki [10]: 4.1 ± 0.7 mM | V max [11]: 27400 ± 310 mM/min | k cat/K m [11]: 3470 ± 256 s^−1 M^−1 (×10^2) | K m ([11]; pH 7.0 (ABTS pH 5.0), 60°C): 38 ± 0.5 mM | V max [12]: 15000 ± 150 mM/min | k cat/K m [12]: 5710 ± 200 s^−1 M^−1 (×10^2) | K m ([12]; pH 7.0 (ABTS pH 5.0), 60°C): 41 ± 1.0 mM | K m [13]: 36 ± 0.7 mM | Ki [14]: 58 ± 1.8 mM | V max [15]: 16200 ± 410 mM/min | k cat/K m [15]: 660 ± 88 s^−1 M^−1 (×10^2) | K m ([15]; pH 7.0 (ABTS pH 5.0), 60°C): 40 ± 1.0 mM | Ki [16]: 64 ± 6 mM | V max [17]: 28100 ± 760 mM/min | k cat/K m [17]: 3930 ± 250 s^−1 M^−1 (×10^2) | K m ([17]; pH 7.0 (ABTS pH 5.0), 60°C): 37 ± 0.5 mM
